Assay results published in patent US20240124520A1, “N-ACYLATED HISTIDINE DIPEPTIDES AS ANTICANCER AGENTS” (THE BOARD OF TRUSTEES OF THE LELAND STANFORD JUNIOR …, priority 2019, published 2024).
Non-standard residues stand in square brackets, D forms with d. Residues, ends and D or L forms follow the SMILES beside them. *: point of attachment. Palmitoyl = CCCCCCCCCCCCCCCC(=O)*

Tests used:
Assay type in all cases: cell-based
[1] = test system: 4T1 mouse triple-negative breast cancer cells; assay: Cell Titer Blue in vitro cell viability assay, 4T1; settings: 72 h, 4T1 (RPMI), 3 days at 37° C.
Experimental: (§1) FIG. 16: Dose Response curve for MBC0179 with 4T1 cells. Compound MBC0179 was incubated with 4T1 mouse triple-negative breast cancer cells at the indicated concentrations for 3 days at 37° C. prior to Cell Titer Blue fluorescence-based cell viability assay. Normalized cell viability data, expressed as a percentage, are averaged from three biological replicates and standard error represented by error bars for each averaged data point (empty squares). The compound concentrations are represented on log scale on the x-axis in μM units. Data were analyzed using free software called DrFit, as described in Nature Scientific Reports, Article number: 14701, (2015). […]
(§2) The Cell Titer Blue reagent (available from Promega, Inc.) is a buffered solution containing resazurin, a compound that is converted to resorufin, a detectable fluorescent product, by metabolically active cells. The fluorescence intensity of resorufin product therefore serves as a proportional measure of the number of viable cells, permitting changes in cell viability within cancer or other cell lines to be monitored in response to the addition of cytotoxic or cytostatic agents. […] Metastases to the lungs may be conveniently quantified by a well-established clonogenic assay. […]

[2] = test system: OVCAR-3 human ovarian cancer cells; assay: Cell Titer Blue in vitro cell viability assay, OVCAR-3; settings: 72 h, OVCAR-3 (RPMI), 3 days at 37° C.
Experimental: as §1, with “14:” for “16:”, “OVCAR-3” for “4T1”, “OVCAR-3 human ovarian” for “4T1 mouse triple-negative breast”
as §2

[3] = test system: HEPG2 human liver carcinoma cells; assay: Cell Titer Blue in vitro cell viability assay, HEPG2; settings: 72 h, HEPG2 (DMEM), 3 days at 37° C.
Experimental: as §1, with “12:” for “16:”, “HEPG2” for “4T1”, “HEPG2 human liver carcinoma” for “4T1 mouse triple-negative breast cancer”
as §2

[4] = test system: MDA-MB-231 triple-negative human breast cancer cells; assay: Cell Titer Blue in vitro cell viability assay, MDA-MB-231; settings: MDA-MB-231, 72 h, 3 days at 37° C.
Experimental: FIG. 1: Dose Response curve for MBC017 with MDA-MB-231 cells. Compound MBC017 was incubated with MDA-MB-231 triple-negative human breast cancer cells at the indicated concentrations for 3 days at 37° C. prior to Cell Titer Blue fluorescence-based cell viability assay. Normalized cell viability data, expressed as a percentage, are averaged from three biological replicates and standard error represented by error bars for each averaged data point (empty squares). The compound concentrations are represented on log scale on the x-axis in μM units. Data were analyzed using free software called DrFit, as described in Nature Scientific Reports, Article number: 14701, (2015). […] The data were not sufficient to calculate an accurate IC50 value.
A commercially available in vitro cell viability reagent (Cell Titer Blue) was employed to determine the anti-cancer effectiveness of several compounds (1-5) against multiple cancer and healthy tissue-derived cell lines. Cell lines are summarized in Table 2, as follows: All cell lines and information on each cell lines origins and characteristics were procured from ATCC (www.atcc.org). Common names and ATCC product IDs are shown in the first (leftmost) column. From the left, the second and third columns describe the organism and tissue from which each cell line was isolated. The fourth and fifth columns indicate the cell type and disease status (e.g. normal versus carcinoma) of each cell line. The sixth column provides a summary of what compounds were tested against each cell line using an in vitro cell viability assay. Peptide name IDs are shown in parenthesis for each compound, numbered 1 through 5.
The Cell Titer Blue reagent (available from Promega, Inc.) is a buffered solution containing resazurin, a compound that is converted to resorufin, a detectable fluorescent product, by metabolically active cells. The fluorescence intensity of resorufin product therefore serves as a proportional measure of the number of viable cells, permitting changes in cell viability within cancer or other cell lines to be monitored in response to the addition of cytotoxic or cytostatic agents. Various human breast tissue-derived cell lines are widely employed to study the effects of potential therapeutics against breast cancer in vitro. Human breast cancer cell lines may be subdivided into groups based upon hormone receptor status, i.e. estrogen, progesterone and human epidermal growth factor positive or negative. A healthy human breast tissue-derived cell line, hTERT-HME1 may be used to determine the effect of therapeutic agents on healthy human breast tissue in vitro. Additionally, a highly metastatic and aggressive murine (mouse) breast cancer cell line, 4T1, has been extensively used to monitor breast cancer metastasis from the mammary fat pads of mice to the lungs in order to systematically survey the anti-metastatic effectiveness of anti-cancer therapeutics in an in vivo animal model. Metastases to the lungs may be conveniently quantified by a well-established clonogenic assay. Other human tissue-derived model cell lines, representative of various cancers, other than breast cancer, may be utilized to assess the potential of anti-cancer compounds in vitro. These include, K-562 (chronic myelogenous leukemia), HEPG2 (hepatocellular carcinoma), OVCAR-3 (ovarian adenocarcinoma), SK—N—SH (neuroblastoma) and A549 (lung carcinoma). Several compounds were assayed in vitro using the Cell Titer Blue viability assay against an array of cancer cell lines of both human and murine origin plus one healthy human breast cell line (Table 1, FIGS. 1-16). A mouse 4T1 metastasis study was performed to determine the anti-metastatic potential of one compound, MBC0179 (FIG. 17).
Dimethyl sulfoxide (DMSO), Cremophor EL, methylene blue, 100× antibiotic/antimycotic solution, collagenase (Type IV), DNAse I and 6-thioguanine were available from Millipore-Sigma. […]

[5] = test system: ZR-75-30 human breast cancer cells; assay: Cell Titer Blue in vitro cell viability assay, ZR-75-30; settings: 72 h, ZR-75-30 (DMEM), 3 days at 37° C.
Experimental: as §1, with “10:” for “16:”, “ZR-75-30” for “4T1”, “ZR-75-30 human” for “4T1 mouse triple-negative”
as §2

In the case of `CCCCCCCCCCCCCCCC(=O)N[C@H](Cc1c[nH]cn1)C(=O)N[C@@H](C(=O)OCC)C(C)C` [Compound 5, N-[N-(1-oxohexadecyl)-D-histidyl]-D-valine ethyl ester] (Palmitoyl-[dH]-[dV]-OEt), the IC50 [1] is reported as 25.5 µM, the IC50 [2] is reported as 9.22 µM and the IC50 [3] is reported as 24.9 µM. For the same compound, the IC50 ([4]; MDA-MB-231 (DMEM)) was 14.7 µM, the IC50 ([4]; MDA-MB-231 (MEGM)) was 8.88 µM and the IC50 [5] was 9.7 µM.
